# Measurements: patent US10172823B1, “Method for inhibiting cancer cell growth with a transplatin complex” (KING FAHD UNIVERSITY OF PETROLEUM AND MINERALS, priority 2017, dated 2019)
# Entries after “also recorded” stand apart in the source; their conditions may differ.
# Tests used:
# [1] = system: A549 (human lung cancer) cell line; experiment: In vitro cytotoxic activity, MTT assay, A549 cell line; details: for IC50: read-out: IC50 Values against A549, MTT assay, A549 cells, 24 h incubation with compound, three independent experiments, ± standard deviation; for in vitro cytotoxicity compared with cisplatin and carboplatin, A549: A549 cell line, comparison of IC50 values in words
# Protocol: (§1) The trans-[Pt(NH3)2(thione)2].2NO3 complexes were evaluated for in vitro cytotoxic activity against A549 (human lung cancer), MCF-7 (human breast cancer) and HTC15 (human colon cancer) cell lines. The cells were seeded at 4×10^3 cells/well in 100 μL DMEM containing 10% FBS in 96-wells tissue culture plate and incubated for 72 h at 37° C., 5% CO2 in air and 90% relative humidity in CO2 incubator. After incubation, 100 μL of each sample solution (50, 25, 12.5 and 6.25 μM), prepared in DMEM, were added to cells and the cultures were incubated for 24 h. The medium of wells was discarded and 100 μL DMEM containing MTT (3-(4,5-Dimethylthiazol-2-yl)-2,5-diphenyltetrazolium Bromide) (5 mg/mL) was added to the wells and incubated in CO2 incubator at 37° C. in dark for 4 h. After incubation, purple colored formazan (artificial chromogenic dye, product of the reduction of water insoluble tetrazolium salts e.g., MMT by dehydrogenases and reductases) in the cells is produced and appeared as dark crystals in the bottom of the wells. The resultant crystals were solublized by adding 100 μL of DMSO in each well. The solution was thoroughly mixed to dissolve the formazan crystals, producing a purple solution. The absorbance of the 96-wells plate was taken at 570 nm with Labsystems Multiskan EX-Enzyme-linked immunosorbent assay (EX-ELISA) reader against a reagent blank. The IC50 values were calculated from three independent experiments by generating an equation of logarithmic trend line of percentage cell viability against concentration of compounds in Microsoft excel.
# (§2) The MTT assay was performed in three independent experiments, each in triplicate. The cancer cell lines used are A549 (human lung cancer), MCF-7 (human breast cancer) and HTC15 (human colon cancer) cell lines. Errors are standard deviations determined from at least three independent experiments.
# [2] = system: MCF-7 (human breast cancer) cell line; experiment: In vitro cytotoxic activity, MTT assay, MCF-7 cell line; details: for IC50: read-out: IC50 Values against MCF7, MTT assay, MCF7 cells, 24 h incubation with compound, three independent experiments, ± standard deviation; for cytotoxicity compared with cisplatin and carboplatin, MCF7: MCF7 cell line, comparison of IC50 values in words
# Protocol: as §1, with “After incubation, 100 μL of each sample solution (50, 25, 12.5 and 6.25 μM), prepared in DMEM, were added to cells and the cultures were incubated for 24 h.” left out
# as §2
# [3] = system: HCT15 (human colon cancer) cell line; experiment: In vitro cytotoxic activity, MTT assay, HCT15 cell line; type: cell-based; details: for activity compared with cisplatin and carboplatin, HCT15: HCT15 cell line, comparison of IC50 values in words; for IC50: MTT assay, HCT15 cells, 24 h incubation with compound, three independent experiments, ± standard deviation, read-out: IC50 Values against HCT15
# Protocol: as §1, §2
SMILES,IC50 [1] [µM],IC50 [2] [µM],"activity compared with cisplatin and carboplatin, HCT15 [3]",IC50 [3] [µM],"in vitro cytotoxicity compared with cisplatin and carboplatin, A549 [1]","cytotoxicity compared with cisplatin and carboplatin, MCF7 [2]"
"CCN1CCN(CC)C1=S.CCN1CCN(CC)C1=S.N.N.O=[N+]([O-])[O-].O=[N+]([O-])[O-].[Pt+2] [Complex 4, trans-[Pt(NH3)2(Et2Imt)2]. 2NO3]",75 ± 1,89 ± 1,less potent even than carboplatin,63 ± 1,–,–
"CC(C)N1CCNC1=S.CC(C)N1CCNC1=S.N.N.O=[N+]([O-])[O-].O=[N+]([O-])[O-].[Pt+2] [Complex 6, trans-[Pt(NH3)2(iPrImt)2]. 2NO3]",66 ± 1,86 ± 2,less potent even than carboplatin,79 ± 1,slightly lower than cisplatin but still higher than carboplatin,–
"N.N.[Cl][Pt][Cl] [Cisplatin, cisplatin, reference compound]",42 ± 2,23 ± 3,–,32 ± 2,–,–
"CCN1CCCNC1=S.CCN1CCCNC1=S.N.N.O=[N+]([O-])[O-].O=[N+]([O-])[O-].[Pt+2] [Complex 8, trans-[Pt(NH3)2(EtDiaz)2]. 2NO3]",48 ± 1,60 ± 2,comparable to cisplatin,43,slightly lower than cisplatin but still higher than carboplatin,between cisplatin and carboplatin
"CCCN1CCNC1=S.CCCN1CCNC1=S.N.N.O=[N+]([O-])[O-].O=[N+]([O-])[O-].[Pt+2] [Complex 5, trans-[Pt(NH3)2(PrImt)2]. 2NO3]",41,45 ± 1,comparable to cisplatin,36,almost two-fold better than that of carboplatin; also recorded: better cytotoxicity against A549 cancer cell line than cisplatin,between cisplatin and carboplatin
"CN1CCN(C)C1=S.CN1CCN(C)C1=S.N.N.O=[N+]([O-])[O-].O=[N+]([O-])[O-].[Pt+2] [Complex 3, trans-[Pt(NH3)2(Me2Imt)2]. 2NO3]",70 ± 1,92 ± 2,less potent even than carboplatin,69 ± 2,the same cytotoxicity as carboplatin,–
"CC(C)N1CCN(C(C)C)C1=S.CC(C)N1CCN(C(C)C)C1=S.N.N.O=[N+]([O-])[O-].O=[N+]([O-])[O-].[Pt+2] [Complex 7, trans-[Pt(NH3)2(Pr2Imt)2].2 NO3]",69 ± 1,87 ± 2,almost the same cytotoxicity as carboplatin,53 ± 1,the same cytotoxicity as carboplatin,–
"N.N.O=[N+]([O-])[O-].O=[N+]([O-])[O-].S=C1NCCN1.S=C1NCCN1.[Pt+2] [Complex 1, trans-[Pt(NH3)2(Imt)2]. 2NO3]",52 ± 2,80 ± 1,almost the same cytotoxicity as carboplatin,50 ± 1,slightly lower than cisplatin but still higher than carboplatin,–
"CN1CCNC1=S.CN1CCNC1=S.N.N.O=[N+]([O-])[O-].O=[N+]([O-])[O-].[Pt+2] [Complex 2, trans-[Pt(NH3)2(MeImt)2]. 2NO3]",40,70 ± 2,comparable to cisplatin,40,almost two-fold better than that of carboplatin; also recorded: better cytotoxicity against A549 cancer cell line than cisplatin,–
"N.N.O=[N+]([O-])[O-].O=[N+]([O-])[O-].S=C1NCCCCN1.S=C1NCCCCN1.[Pt+2] [Complex 9, trans-[Pt(NH3)2(Diap)2]. 2NO3]",49 ± 1,69 ± 1,comparable to cisplatin,41,slightly lower than cisplatin but still higher than carboplatin,–
"N.N.O=C([O-])C1(C(=O)[O-])CCC1.[Pt+2] [Carboplatin, carboplatin, reference compound]",70 ± 2,63 ± 2,–,53 ± 2,–,–
